Literature values as cited in article PMC12715049 (Journal of Molecular Medicine (Berlin, Germany), 2025).

System: mHTT aggregates
Settings: read-out: IC50, binding to mHTT aggregates; radio-binding assays

SMILES: COc1ccc(COc2ccc3oc(-c4ccc(=O)n(C)n4)nc3c2)nc1 [CHDI-180R]
- IC50: 1.3 ± 1 nM
